This is an account of results in paper PMC5626019 (Nature, 2017).

Experiment [1] relates to DQB1*05:01. The settings on record: competition binding to purified MHC.
Experiment [2] deals with DQB1*04:02. The settings on record: competition binding to purified MHC.
Experiment [3] has as its system PBMC. Nature of the experiment: IFNγ and IL-5 dual ELISPOT after 14 days culture. The format is cell-based, human.
For experiment [4], the target named is purified HLA A*11:01 molecules (Homo sapiens, UniProt P04439, A114D/D185E/E176A/F33Y/L180Q/S129P/T187R). Nature of the experiment: HLA class I competition binding assay. The settings on record: for binding, in words: purified HLA A*11:01 in vitro.
For experiment [5], the system named is 26 common HLA class II alleles. Nature of the experiment: HLA class II competition binding, panel of common alleles. More on the design: species or system human.

No end group written: not given here.

Turning to DNEAYEMPSEEGYQD, in experiment [1], the “binding, in words” value was “strongly bound”.

Turning to EMPSEEGYQDYEPEA, the “binding, in words” value in experiment [1] and in experiment [2] was “low affinity” throughout. Regarding GKTKEGVLYVGSKTK, the “T cell response, in words” value in experiment [3] (PBMC stimulated 14 days, peptides 5 μg/ml) was “apparent Class II restricted IL-5 and IFNγ response”. For GVLYVGSKTK, in experiment [4], the “binding, in words” value was “bound poorly”. As for MPVDPDNEAYEMPSE, in experiment [5], the “binding, in words” value is “bound several alleles with lower affinity”. Regarding VLYVGSKTK, the IC50 in experiment [4] came out at 161 nM. On to VLYVGSKTKK, for which the “binding, in words” value in experiment [4] is listed as “bound poorly”. Consider “phosphorylated aaS129 aa116MPVDPDNEAYEMPSEaa130: phosphorylated aaS129 epitope”, for which, in experiment [3] (p=0.02, Fisher's exact test, 300 SFC threshold), the “IL-5 responses in PD compared with HC” value is given as “markedly higher”.
